For 37 compounds, IC50 results are on record in US8362249B2, “CXCR3 receptor antagonists” (Boehringer Ingelheim International GmbH, priority 2009, dated 2013).

Each structure is given as a SMILES string.

For orientation: IC50 means the concentration that gives 50% inhibition.

This test deals with CXCR3 (Macaca fascicularis, UniProt A0A2K5UV19). The test is described as follows: functional cellular assay measuring calcium flux in CXCR3 transfected cells (block of CXCR3/IP-10 interaction). The note with it: IP-10 induced intracellular calcium flux; Cyno-CHO cells stably expressing recombinant CXCR3 and G-alpha-16. In kind it is cell-based. Summed up: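 Cyno-CHO cells stably co-expressing recombinant CXCR3 and G-alpha-16, loaded with Ca-4 dye (HBSS, 10 mM HEPES pH 7.4, 2 mM probenecid) for 1 h at 37 °C. Compound (10 microM final) preincubated 15 min at room temperature, then IP-10 added at EC80. Intracellular calcium flux read by fluorescence (ex 480/em 540 nm).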
Chain of CXCR3 (A0A2K5UV19 entry or part of it): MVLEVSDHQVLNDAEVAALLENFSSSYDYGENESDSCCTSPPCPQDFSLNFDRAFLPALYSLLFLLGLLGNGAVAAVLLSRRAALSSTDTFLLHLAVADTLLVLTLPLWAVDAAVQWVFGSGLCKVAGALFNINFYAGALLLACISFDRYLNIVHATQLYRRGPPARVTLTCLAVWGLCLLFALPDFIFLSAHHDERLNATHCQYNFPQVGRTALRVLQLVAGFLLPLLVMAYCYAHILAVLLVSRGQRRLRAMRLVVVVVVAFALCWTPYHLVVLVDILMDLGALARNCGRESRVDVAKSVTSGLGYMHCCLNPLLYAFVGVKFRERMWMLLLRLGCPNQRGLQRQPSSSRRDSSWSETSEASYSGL
(In general: A change in cytosolic calcium serves as a functional read-out for many receptors and channels.)
Turning to `Cc1cc(C)n(CC(=O)N2CCN(c3ccccc3C(=O)Nc3nc(C(C)(C)C)c(C#N)s3)CC2)n1` [N-(4-tert-Butyl-5-cyano-thiazol-2-yl)-2-{4-[2-(3,5-dimethyl-pyrazol-1-yl)-acetyl]-piperazin-1-yl}-benzamide], the IC50 amounted to 18.5 nM.

`COc1cc(NC(=O)c2ccccc2N2CCN(C(=O)CN3CCCCC3=O)[C@@H](C)C2)ccn1` [N-(2-Methoxy-pyridin-4-yl)-2-{(S)-3-methyl-4-[2-(2-oxo-piperidin-1-yl)-acetyl]-piperazin-1-yl}-benzamide]: the IC50 worked out at 13 nM.

Regarding `COc1cc(NC(=O)c2ccccc2N2CCN(C(=O)CN3Cc4ccccc4C3=O)CC2)ccn1` [N-(2-Methoxy-pyridin-4-yl)-2-{4-[2-(1-oxo-1,3-dihydro-isoindol-2-yl)-acetyl]-piperazin-1-yl}-benzamide], the IC50 amounted to 3.4 nM.

With `CC(=O)Nc1ccc(NC(=O)c2ccccc2N2CCN(C(=O)Cn3nc(C)cc3C)CC2)cn1` [N-(6-Acetylamino-pyridin-3-yl)-2-{4-[2-(3,5-dimethyl-pyrazol-1-yl)-acetyl]-piperazin-1-yl}-benzamide], the IC50 was 10.2 nM.

Turning to `Cc1cc(C)n(CC(=O)N2CCN(c3ncc(Cl)cc3NC(=O)c3ccc(S(C)(=O)=O)cc3)CC2)n1` [N-(5-Chloro-2-{4-[2-(3,5-dimethyl-pyrazol-1-yl)-acetyl]-piperazin-1-yl}-pyridin-3-yl)-4-methanesulfonyl-benzamide], the IC50 was determined as 23 nM.

Take `Cc1cc(C)n(CC(=O)N2CCN(c3ccccc3NC(=O)c3cccc(Cl)c3)CC2)n1` [3-Chloro-N-(2-{4-[2-(3,5-dimethyl-pyrazol-1-yl)-acetyl]-piperazin-1-yl}-phenyl)-benzamide]: the half-maximal inhibitory concentration (IC50) stood at 4.2 nM.

As for `Cc1cc(C)n(CC(=O)N2CCN(c3ccccc3NC(=O)c3cncc(Br)c3)CC2)n1` [5-Bromo-N-(2-{4-[2-(3,5-dimethyl-pyrazol-1-yl)-acetyl]-piperazin-1-yl}-phenyl)-nicotinamide], the IC50 was 5.7 nM.

`Cc1cc(C)n(CC(=O)N2CCN(c3ccccc3C(=O)Nc3ccncc3)CC2)n1` [2-{4-[2-(3,5-Dimethyl-pyrazol-1-yl)-acetyl]-piperazin-1-yl}-N-pyridin-4-yl-benzamide]: the IC50 came out at 4.7 nM.

Take `Cc1cc(C)n(CC(=O)N2CCN(c3ccccc3C(=O)Nc3ccc4cnccc4c3)CC2)n1` [2-{4-[2-(3,5-Dimethyl-pyrazol-1-yl)-acetyl]-piperazin-1-yl}-N-isoquinolin-6-yl-benzamide]: the IC50 was 13 nM.

`O=C(Nc1cccnc1)c1ccccc1N1CCN(C(=O)CN2CCc3cccnc32)CC1` [2-[4-(2-2,3-Dihydro-pyrrolo[2,3-b]pyridin-1-yl-acetyl)-piperazin-1-yl]-N-pyridin-3-yl-benzamide]: the half-inhibitory concentration (IC50) stood at 10 nM.

For the compound `Cc1cc(C)n(CC(=O)N2CCN(c3ccccc3C(=O)Nc3ccc4nc(C)sc4c3)CC2)n1` [2-{4-[2-(3,5-Dimethyl-pyrazol-1-yl)-acetyl]-piperazin-1-yl}-N-(2-methyl-benzothiazol-6-yl)-benzamide], the IC50 was 13 nM.

As to `COc1ccc2nc(NC(=O)c3ccccc3N3CCN(C(=O)Cn4nc(C)cc4C)CC3)sc2c1` [2-{4-[2-(3,5-Dimethyl-pyrazol-1-yl)-acetyl]-piperazin-1-yl}-N-(6-methoxy-benzothiazol-2-yl)-benzamide], the IC50 amounted to 9.8 nM.

Take `Cc1cc(C)n(CC(=O)N2CCN(c3ccccc3C(=O)Nc3nccs3)CC2)n1` [2-{4-[2-(3,5-Dimethyl-pyrazol-1-yl)-acetyl]-piperazin-1-yl}-N-thiazol-2-yl-benzamide]: the concentration for half-maximal inhibition (IC50) was determined as 13 nM.

With `Cc1cc(C)n(CC(=O)N2CCN(c3ccccc3C(=O)Nc3ccc(-c4ccccc4)nc3)CC2)n1` [2-{4-[2-(3,5-Dimethyl-pyrazol-1-yl)-acetyl]-piperazin-1-yl}-N-(6-phenyl-pyridin-3-yl)-benzamide], the IC50 turned out to be 11.5 nM.

For `Cc1cc(C)n(CC(=O)N2CCN(c3ccccc3C(=O)Nc3cccnc3)CC2)n1` [2-{4-[2-(3,5-Dimethyl-pyrazol-1-yl)-acetyl]-piperazin-1-yl}-N-pyridin-3-yl-benzamide], the IC50 came to 6.6 nM.

Turning to `O=C(Nc1ccnc(C(F)(F)F)c1)c1ccccc1N1CCN(C(=O)CN2CCCCC2=O)CC1` [2-{4-[2-(2-Oxo-piperidin-1-yl)-acetyl]-piperazin-1-yl}-N-(2-trifluoromethyl-pyridin-4-yl)-benzamide], the IC50 was found to be 11 nM.

In the case of `Cc1nc(C)c(CC(=O)N2CCN(c3ccccc3C(=O)Nc3ccncc3)CC2)s1` [2-{4-[2-(2,4-Dimethyl-thiazol-5-yl)-acetyl]-piperazin-1-yl}-N-pyridin-4-yl-benzamide], the IC50 came to 13 nM.

Regarding `Cc1ccc(NC(=O)c2ccccc2N2CCN(C(=O)Cn3ccc4cccnc43)CC2)cn1` [N-(6-Methyl-pyridin-3-yl)-2-[4-(2-pyrrolo[2,3-b]pyridin-1-yl-acetyl)-piperazin-1-yl]-benzamide], the IC50 stood at 6.8 nM.

Take `O=C(Nc1ccncc1)c1ccccc1N1CCN(C(=O)CNc2ccccc2)CC1` [2-[4-(2-Phenylamino-acetyl)-piperazin-1-yl]-N-pyridin-4-yl-benzamide]: the IC50 came to 19 nM.

Turning to `Cc1cc(C)n(CC(=O)N2CCN(c3ccccc3NC(=O)c3cccnc3)CC2)n1` [N-(2-{4-[2-(3,5-Dimethyl-pyrazol-1-yl)-acetyl]-piperazin-1-yl}-phenyl)-nicotinamide], the IC50 turned out to be 15 nM.

Turning to `Cc1cc(C)n(CC(=O)N2CCN(c3ccccc3C(=O)Nc3cccc(S(C)(=O)=O)c3)CC2)n1` [2-{4-[2-(3,5-Dimethyl-pyrazol-1-yl)-acetyl]-piperazin-1-yl}-N-(3-methanesulfonyl-phenyl)-benzamide], the IC50 was found to be 19 nM.

On to `Cc1ccc(NC(=O)c2ccccc2N2CCN(C(=O)Cn3nc(C)cc3C)CC2)cn1` [2-{4-[2-(3,5-Dimethyl-pyrazol-1-yl)-acetyl]-piperazin-1-yl}-N-(6-methyl-pyridin-3-yl)-benzamide], for which the IC50 was 5.3 nM.

On to `N#Cc1ccc(NC(=O)c2ccccc2N2CCN(C(=O)Cn3ccc4cccnc43)CC2)cn1` [N-(6-Cyano-pyridin-3-yl)-2-[4-(2-pyrrolo[2,3-b]pyridin-1-yl-acetyl)-piperazin-1-yl]-benzamide], for which the IC50 was 6.3 nM.

As for `CS(=O)(=O)c1ccc(NC(=O)c2ccccc2N2CCN(C(=O)Cn3ccc4cccnc43)CC2)cc1` [N-(4-Methanesulfonyl-phenyl)-2-[4-(2-pyrrolo[2,3-b]pyridin-1-yl-acetyl)-piperazin-1-yl]-benzamide], the IC50 was determined as 7.4 nM.

With `Cc1cc(C)n(CC(=O)N2CCN(c3ccccc3NC(=O)c3ccccc3)CC2)n1` [N-(2-{4-[2-(3,5-Dimethyl-pyrazol-1-yl)-acetyl]-piperazin-1-yl}-phenyl)-benzamide], the IC50 worked out at 6.6 nM.

As to `O=C(Nc1ccnc(OCC(F)(F)F)c1)c1ccccc1N1CCN(C(=O)CN2CCCCC2=O)CC1` [2-{4-[2-(2-Oxo-piperidin-1-yl)-acetyl]-piperazin-1-yl}-N-[2-(2,2,2-trifluoro-ethoxy)-pyridin-4-yl]-benzamide], the IC50 was 7.8 nM.

For the compound `O=C(Nc1ccccc1)c1ccccc1N1CCN(C(=O)Cn2ccc3cccnc32)CC1` [N-Phenyl-2-[4-(2-pyrrolo[2,3-b]pyridin-1-yl-acetyl)-piperazin-1-yl]-benzamide], the IC50 was 3.4 nM.

Take `CS(=O)(=O)c1ccc(NC(=O)c2ccccc2N2CCN(C(=O)CN3CCc4cccnc43)CC2)cc1` [2-[4-(2-2,3-Dihydro-pyrrolo[2,3-b]pyridin-1-yl-acetyl)-piperazin-1-yl]-N-(4-methanesulfonyl-phenyl)-benzamide]: the IC50 stood at 9.7 nM.

`Cc1cc(C)n(CC(=O)N2CCN(c3ccccc3NC(=O)c3ccc(Oc4ccccc4)nc3)CC2)n1` [N-(2-{4-[2-(3,5-Dimethyl-pyrazol-1-yl)-acetyl]-piperazin-1-yl}-phenyl)-6-phenoxy-nicotinamide]: the IC50 turned out to be 9.1 nM.

`COc1ccc(C(=O)NCC(=O)N2CCN(c3ccccc3C(=O)Nc3cccnc3)CC2)cc1F` [3-Fluoro-4-methoxy-N-(2-oxo-2-{4-[2-(pyridin-3-ylcarbamoyl)-phenyl]-piperazin-1-yl}-ethyl)-benzamide]: the IC50 was 19.5 nM.

Turning to `Cn1c(=O)n(CC(=O)N2CCN(c3ccccc3C(=O)Nc3ccncc3)CC2)c2ccccc21` [2-{4-[2-(3-Methyl-2-oxo-2,3-dihydro-benzoimidazol-1-yl)-acetyl]-piperazin-1-yl}-N-pyridin-4-yl-benzamide], the half-maximal inhibitory concentration (IC50) was found to be 4 nM.

Take `Cc1cc(C)n(CC(=O)N2CCN(c3ccccc3C(=O)Nc3ccc4ncccc4c3)CC2)n1` [2-{4-[2-(3,5-Dimethyl-pyrazol-1-yl)-acetyl]-piperazin-1-yl}-N-quinolin-6-yl-benzamide]: the IC50 is 11.5 nM.

With `COc1ccc(C(=O)NCC(=O)N2CCN(c3ccccc3C(=O)Nc3ccncc3)CC2)cc1OC` [3,4-Dimethoxy-N-(2-oxo-2-{4-[2-(pyridin-4-ylcarbamoyl)-phenyl]-piperazin-1-yl}-ethyl)-benzamide], the IC50 was determined as 4.6 nM.

For the compound `Cc1cc(C)n(CC(=O)N2CCN(c3ccccc3C(=O)Nc3ccnc(Br)c3)CC2)n1` [N-(2-Bromo-pyridin-4-yl)-2-{4-[2-(3,5-dimethyl-pyrazol-1-yl)-acetyl]-piperazin-1-yl}-benzamide], the 50% inhibitory concentration (IC50) came out at 4.1 nM.

On to `Cc1cc(C)n(CC(=O)N2CCN(c3ccccc3NC(=O)c3ccc(Cl)nc3)CC2)n1` [6-Chloro-N-(2-{4-[2-(3,5-dimethyl-pyrazol-1-yl)-acetyl]-piperazin-1-yl}-phenyl)-nicotinamide], for which the IC50 came to 15 nM.

Consider `O=C(Nc1ccncc1)c1ccccc1N1CCN(C(=O)CN2Cc3ccccc3C2=O)CC1` [2-{4-[2-(1-Oxo-1,3-dihydro-isoindol-2-yl)-acetyl]-piperazin-1-yl}-N-pyridin-4-yl-benzamide], for which the IC50 came out at 5.1 nM.

On to `Cc1cc(C)n(CC(=O)N2CCN(c3ccccc3C(=O)Nc3nc(-c4ccccn4)cs3)CC2)n1` [2-{4-[2-(3,5-Dimethyl-pyrazol-1-yl)-acetyl]-piperazin-1-yl}-N-(4-pyridin-2-yl-thiazol-2-yl)-benzamide], for which the IC50 was determined as 11.5 nM.
